Laboratory results reported in patent US20230159620A1, “COMPOSITIONS AND METHODS OF TREATMENT FOR VASCULAR DISEASES AND THROMBOSIS” (Washington University, priority 2021, published 2023).

Key:
[1] = system: integrin signaling kinases; test: Integrin signaling western blot, VSMCs; type: cell-based, mouse; details: VSMCs adherent to coated wells, relative to inert protein control
Protocol: Cells were resuspended in serum-free media (SFM) and incubated with gentle agitation to prevent cell attachment and reduce basal signaling. […] Cells were briefly centrifuged to the bottom of the wells and incubated for 8 min (for VSMCs) or 15 min (for THP-1 cells) before lysis with cell lysis buffer (#9803, Cell Signaling Technologies) containing a cocktail of protease and phosphatase inhibitors. Western blots were performed by standard techniques, as briefly follows. Protein content was determined using a bicinchoninic acid assay with BSA standards (#23225, Pierce™ BCA Protein Assay Kit). Cell lysates were then reduced with DTT in lithium dodecyl sulfate sample buffer (#NP0007, Invitrogen). Equal protein amounts were added to polyacrylamide gels (#4561086, BioRad) and electrophoresed prior to transferring to a nitrocellulose or polyvinylidene fluoride membrane (#1620260, BioRad). Membranes were blocked in 5% BSA/Tris-Buffered Saline with tween 20 for 30 min. The indicated primary antibodies were incubated with the pre-blocked membranes for overnight at 4° C. Membranes were washed with Tris-Buffered Saline with tween 20, probed with fluorescent secondary antibodies, and imaged. β-actin or β-tubulin served as a loading control.

AKT = AKT signaling immunoblot, hCASMCs; type: cell-based, human; details: relative to BSA controls
Protocol: Cellular reagents were purchased from various commercial vendors. Primary human umbilical vein endothelial cells (HUVECs) were obtained from Cell Applications Inc. and cultured according to the manufacture's recommendations. Primary human coronary artery smooth muscle cells were obtained from Invitrogen and were cultured according to the manufacture's recommendations. 293T cells were obtained from ATCC and were cultured according to the manufacture's recommendations. Mouse primary smooth muscle cells were obtained and cultured as described previously. Predesigned Silencer Select siRNA constructs targeting Pearl 1 and negative control siRNA were obtained from ThermoFisher. Transfections were performed using RNAiMAX or Lipofectamine 3000 transfection reagents according to the manufacturer's protocols. Cells were used for signaling assays 48 hours after transfection; efficient Pearl 1 knockdown or Pearl 1 overexpression was confirmed by immunoblot assays.
Prior to performing signaling assays, cells were trypsinized, centrifuged, suspended in basal media, and counted using an automated hemocytometer. Cells were further diluted in basal media to an assay-dependent concentration. […] Protein content was determined using a bicinchoninic acid assay with BSA standards (#23225, Pierce BCA Protein Assay Kit). […]

FGF receptors = test: Bulk RNA sequencing of VSMCs, Fgfr transcripts; type: cell-based, mouse; details: RNAseq, normalized to BSA
Protocol: Plates were UV sterilized before adding cells. Primary VSMCs were collected, resuspended in DMEM/F12 media containing 10% FBS, plated on precoated, blocked wells, and incubated for 8 hr to ensure complete cell adhesion. Media was replaced with fresh DMEM/F12 containing 1% FBS and incubated for 12 hr before collection. RNA was collected using RNeasy® Mini Kit (#74106, Qiagen). Atherosclerotic aortic arches (including the aortic root, arch, and the proximal regions of its branching vessels) from mice were used as the source of RNA for the later RNAseq experiment. […]
Samples were prepared according to the library kit manufacturer's protocol, indexed, pooled, and sequenced on an Illumina HiSeq. Basecalls and demultiplexing were performed with Illumina's bcl2fastq software and a custom python demultiplexing program with a maximum of one mismatch in the indexing read. RNA-seq reads were then aligned to the Ensembl release 76 primary assembly with STAR version 2.5.1a. Gene counts were derived from the number of uniquely aligned unambiguous reads by Subread:featureCount version 1.4.6-p5 2). […] Sequencing performance was assessed for the total number of aligned reads, the total number of uniquely aligned reads, and the features detected. The ribosomal fraction, known junction saturation, and read distribution over known gene models were quantified with RSeQC version 2.6.2. […]

Question: Which “phosphorylation of FAK, Paxillin, Src, ERK and p38” value [1] does the source give for “SVEP1: recombinant murine SVEP1 extracellular matrix protein with Myc and poly-histidine tag, expressed in 293F cells” here?
Answer: The value was “increased phosphorylation”.

Question: What about the AKT signaling (AKT) of the same substance?
Answer: The AKT signaling was “activated”.

Question: What about the “expression of FGF receptors” value (FGF receptors) of the same substance?
Answer: Its value is “increases expression of FGF receptors”.
